Experimental data taken from the supplement of paper PMC10307832.

Legend:
Experiment in all cases: relative viability (nuclei count vs DMSO), 5 days (fraction); higher = more cells survive
Afatinib + Linsitinib = compound: CN(C)C/C=C/C(=O)Nc1cc2c(Nc3ccc(F)c(Cl)c3)ncnc2cc1O[C@H]1CCOC1 [Afatinib] + C[C@]1(O)C[C@@H](c2nc(-c3ccc4ccc(-c5ccccc5)nc4c3)c3c(N)nccn32)C1 [Linsitinib] (partner 1 µM)
Outline: (§1)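 Lung cancer cell lines, seeded in 1536-well plates, were treated the following day by pin tool with a single drug or with five library-drug doses (not always all listed) in √10 steps on top of a fixed anchor-drug dose. Cells were fixed and nuclei stained in one step after 5 days, and nuclei were counted. Relative viability is the nuclei count for treated wells divided by that for vehicle wells, reported as medians of duplicate plates.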

Afatinib + Pemetrexed = compound: CN(C)C/C=C/C(=O)Nc1cc2c(Nc3ccc(F)c(Cl)c3)ncnc2cc1O[C@H]1CCOC1 [Afatinib] + Nc1nc2[nH]cc(CCc3ccc(C(=O)N[C@@H](CCC(=O)O)C(=O)O)cc3)c2c(=O)[nH]1 [Pemetrexed] (partner 0.2 µM)
Outline: as §1

Afatinib + Vorinostat = compound: CN(C)C/C=C/C(=O)Nc1cc2c(Nc3ccc(F)c(Cl)c3)ncnc2cc1O[C@H]1CCOC1 [Afatinib] + O=C(CCCCCCC(=O)Nc1ccccc1)NO [Vorinostat] (partner 1 µM)
Outline: as §1

Afatinib + Olaparib = compound: CN(C)C/C=C/C(=O)Nc1cc2c(Nc3ccc(F)c(Cl)c3)ncnc2cc1O[C@H]1CCOC1 [Afatinib] + O=C(c1cc(Cc2n[nH]c(=O)c3ccccc23)ccc1F)N1CCN(C(=O)C2CC2)CC1 [Olaparib] (partner 8 µM)
Outline: as §1

| Cell Line | relative viability (Afatinib + Linsitinib; first compound 0.005 µM) | relative viability (Afatinib + Linsitinib; first compound 0.01581 µM) | relative viability (Afatinib + Linsitinib; first compound 0.05 µM) | relative viability (Afatinib + Linsitinib; first compound 0.1581 µM) | relative viability (Afatinib + Linsitinib; first compound 0.5 µM) | relative viability (Afatinib + Pemetrexed; first compound 0.005 µM) | relative viability (Afatinib + Pemetrexed; first compound 0.01581 µM) | relative viability (Afatinib + Pemetrexed; first compound 0.05 µM) | relative viability (Afatinib + Pemetrexed; first compound 0.1581 µM) | relative viability (Afatinib + Pemetrexed; first compound 0.5 µM) | relative viability (Afatinib + Vorinostat; first compound 0.005 µM) | relative viability (Afatinib + Vorinostat; first compound 0.01581 µM) | relative viability (Afatinib + Vorinostat; first compound 0.05 µM) | relative viability (Afatinib + Vorinostat; first compound 0.1581 µM) | relative viability (Afatinib + Vorinostat; first compound 0.5 µM) | relative viability (Afatinib + Olaparib; first compound 0.005 µM) | relative viability (Afatinib + Olaparib; first compound 0.01581 µM) | relative viability (Afatinib + Olaparib; first compound 0.05 µM) | relative viability (Afatinib + Olaparib; first compound 0.1581 µM) | relative viability (Afatinib + Olaparib; first compound 0.5 µM) |
| --- | --- | --- | --- | --- | --- | --- | --- | --- | --- | --- | --- | --- | --- | --- | --- | --- | --- | --- | --- | --- |
| COR-L 105 | 0.418 | 0.207 | 0.403 | 0.258 | 0.278 | 0.837 | 0.503 | 0.542 | 0.353 | 0.377 | 0.667 | 0.386 | 0.47 | 0.336 | 0.386 | 0.737 | 0.483 | 0.422 | 0.331 | 0.34 |
| EKVX | 0.702 | 0.768 | 0.421 | 0.171 | 0.134 | 0.318 | 0.271 | 0.254 | 0.187 | 0.185 | 0.588 | 0.385 | 0.284 | 0.31 | 0.276 | 0.602 | 0.687 | 0.534 | 0.283 | 0.227 |
| EMC-BAC-2 | 0.747 | 0.684 | 0.697 | 0.59 | 0.572 | 0.441 | 0.496 | 0.462 | 0.523 | 0.511 | 0.558 | 0.236 | 0.596 | 0.465 | 0.438 | 0.53 | 0.501 | 0.595 | 0.554 | 0.531 |
| EPLC-272H | 1.14 | 0.926 | 0.832 | 0.776 | 0.736 | 0.349 | 0.381 | 0.301 | 0.285 | 0.318 | 0.402 | 0.387 | 0.347 | 0.448 | 0.273 | 0.567 | 0.776 | 0.727 | 0.734 | 0.595 |
| H3255 | 0.197 | 0.124 | 0.149 | 0.123 | 0.138 | 0.365 | 0.313 | 0.306 | 0.307 | 0.273 | 0.277 | 0.207 | 0.229 | 0.185 | 0.952 | 0.332 | 0.273 | 0.277 | 0.277 | 0.236 |
| HARA | 0.481 | 0.803 | 0.238 | 0.209 | 0.26 | 0.21 | – | 0.185 | 0.217 | 0.225 | 0.586 | 0.543 | – | 0.458 | 0.58 | 0.688 | – | 0.344 | 0.462 | 0.391 |
| HCC-15 | 0.845 | 0.894 | 0.849 | 0.854 | 0.788 | 0.226 | 0.222 | – | 0.207 | 0.234 | 0.904 | 0.92 | 0.816 | 0.785 | 0.887 | 0.662 | 0.765 | 0.744 | 0.668 | 0.722 |
| HCC-44 | 0.63 | 0.659 | 0.702 | 0.593 | 0.669 | 0.654 | 0.645 | 0.733 | 0.657 | 0.661 | 1.18 | 1.09 | 1.18 | 1.1 | 1.05 | 0.958 | 0.921 | 0.974 | 1 | 1.01 |
| HCC-78 | 0.53 | 0.482 | 0.436 | 0.413 | 0.395 | 0.924 | 0.869 | 0.904 | 0.915 | 0.902 | 0.433 | 0.404 | 0.422 | 0.345 | 0.376 | 0.792 | 0.932 | 0.852 | 0.717 | 0.667 |
| HCC-366 | 0.764 | 0.669 | 0.56 | 0.541 | 0.618 | 0.16 | 0.173 | 0.146 | 0.196 | 0.168 | 0.329 | 0.36 | 0.348 | 0.36 | 0.345 | 0.299 | 0.38 | 0.391 | 0.3 | 0.367 |
| HCC-827 | 0.202 | 0.163 | 0.18 | 0.172 | 0.176 | 0.118 | 0.157 | 0.153 | 0.153 | 0.159 | 0.166 | 0.134 | 0.146 | 0.151 | 0.146 | 0.135 | 0.0842 | 0.145 | 0.158 | 0.142 |
| HOP-62 | 1.03 | 1.13 | 1.2 | 1.03 | 1.04 | 0.305 | 0.302 | 0.328 | 0.338 | 0.292 | 0.736 | 0.655 | 0.746 | 0.727 | 0.673 | 0.624 | 0.329 | 0.606 | 0.439 | 0.423 |
| LC-2-ad | 0.935 | 0.817 | 0.794 | 0.696 | 0.682 | 0.275 | 0.273 | 0.259 | 0.28 | 0.274 | 0.767 | 0.717 | 0.705 | 0.662 | 0.78 | 0.752 | 0.754 | 0.724 | 0.707 | 0.701 |
| LCLC-97TM1 | 0.176 | 0.179 | 0.167 | 0.156 | 0.205 | 0.17 | 0.187 | 0.191 | 0.21 | 0.152 | 0.793 | 0.784 | 0.861 | 0.628 | 0.646 | 0.424 | 0.351 | 0.348 | 0.273 | 0.397 |
